8 compounds from PubChem BioAssay (NCI) can be followed below.

Structures are written as SMILES. Several values for one entry are separate records, joined by “and”; a condition that tells them apart may be missing. Equal entries are not always repeated.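 Cultured in 96-well plates, cells were exposed to test compound for 48 hours across five concentrations. GI50 marks 50% less growth. The concentration for full growth arrest is given as TGI.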

Some test systems named below: NCI-H226 lung; SK-OV-3 ovarian; UO-31 renal; IGROV1 ovarian; PC-3 prostate; DU-145 prostate; MALME-3M melanoma; SF-295 CNS; HCT-116 colon; 786-0 renal.
Common to all, as to experiment: inhibition of tumour cell growth, NCI panel, 48 h

In the case of `CCCCCCN1CCN(Cc2ccc(N(CC)CC)cc2)C(=O)C1=O`, the GI50 in the assay on NCI-H226 lung is 5.84 µM; in the assay on SK-OV-3 ovarian, 3.61 µM; in the assay with UO-31 renal it was 5.22 µM; in the assay with IGROV1 ovarian, 6.63 µM; with PC-3 prostate, 2.97 µM; in the assay with DU-145 prostate, 3.38 µM. Further, the GI50 is 4.25 µM with MALME-3M melanoma, 3.02 µM in the assay on SF-295 CNS, 3.92 µM in the assay with HCT-116 colon and 4.88 µM in the assay with 786-0 renal. Moreover, the TGI in the assay on NCI-H226 lung was 27.8 µM; with SK-OV-3 ovarian, more than 100 µM; in the assay with UO-31 renal, more than 100 µM; in the assay on IGROV1 ovarian, more than 100 µM; in the assay with PC-3 prostate, 54 µM; in the assay with DU-145 prostate it was 48.7 µM. Besides, the TGI in the assay on MALME-3M melanoma, with SF-295 CNS, in the assay on HCT-116 colon and in the assay with 786-0 renal was more than 100 µM throughout.

As for `NC(=O)NCCSC1CCCCC1O` (stereo not given), the TGI with NCI-H226 lung, in the assay on SK-OV-3 ovarian, in the assay with UO-31 renal, in the assay with IGROV1 ovarian, with PC-3 prostate and in the assay on DU-145 prostate was more than 100 µM throughout. The TGI with MALME-3M melanoma, with SF-295 CNS, with HCT-116 colon and with 786-0 renal was more than 100 µM in each case.

As to `CC1(C)N[P+]2(Nc3ccccc3O2)OC1=O` (stereo not given), the TGI with NCI-H226 lung, in the assay on SK-OV-3 ovarian, in the assay with UO-31 renal, in the assay with IGROV1 ovarian, in the assay on PC-3 prostate and with DU-145 prostate was more than 100 µM throughout. The TGI in the assay on MALME-3M melanoma, in the assay with SF-295 CNS, in the assay with HCT-116 colon and in the assay with 786-0 renal was more than 100 µM each time.

Turning to `COc1ccc(-c2cc(-c3nnc(SCC(=O)Nc4ccc(C(C)=O)cc4)o3)c3ccccc3n2)cc1`, the GI50 with NCI-H226 lung was 43.6 µM; in the assay with SK-OV-3 ovarian, 27 µM; in the assay with UO-31 renal, more than 100 µM; in the assay on IGROV1 ovarian, 20.2 µM; in the assay with PC-3 prostate it was more than 100 µM; with DU-145 prostate, more than 100 µM. Moreover, the GI50 in the assay with MALME-3M melanoma is 10.6 µM; with SF-295 CNS, 26.4 µM; with HCT-116 colon, 2.9 µM; with 786-0 renal it was 1.94 µM. The TGI in the assay on NCI-H226 lung is more than 100 µM; in the assay with SK-OV-3 ovarian, 91.6 µM; in the assay on UO-31 renal it was more than 100 µM; in the assay on IGROV1 ovarian, more than 100 µM; in the assay with PC-3 prostate, more than 100 µM; in the assay with DU-145 prostate, more than 100 µM. The TGI in the assay on MALME-3M melanoma was 91.8 µM; in the assay on SF-295 CNS it was more than 100 µM; in the assay on HCT-116 colon it was more than 100 µM; in the assay on 786-0 renal it was 4.95 µM.

Turning to `O=[N+]([O-])/C=C/c1ccc([N+](=O)[O-])cc1`, the GI50 was 2.06 µM with NCI-H226 lung; 4.15 µM with SK-OV-3 ovarian; 1.83 µM in the assay with UO-31 renal; 2.06 µM with IGROV1 ovarian; 5.46 µM in the assay with PC-3 prostate; 1.96 µM with DU-145 prostate. The GI50 with MALME-3M melanoma was 4.23 µM; with SF-295 CNS it was 6.87 µM; in the assay with HCT-116 colon, 1.52 µM; in the assay with 786-0 renal, 2.02 µM. The TGI amounted to 5.37 µM in the assay on NCI-H226 lung; 14.4 µM in the assay on SK-OV-3 ovarian; 3.69 µM in the assay on UO-31 renal; 5.29 µM in the assay with IGROV1 ovarian; 24.8 µM in the assay on PC-3 prostate; 3.77 µM with DU-145 prostate. Further, the TGI in the assay with MALME-3M melanoma worked out at 15.1 µM; with SF-295 CNS it was 24 µM; in the assay on HCT-116 colon, 3.08 µM; in the assay with 786-0 renal, 3.64 µM.

Regarding `C=C(C)[C@@H]1CC[C@]2(C(=O)NCCNCCNCCN)CC[C@]3(C)[C@H](CC[C@@H]4[C@@]5(C)CCC(=O)C(C)(C)[C@@H]5CC[C@]43C)[C@@H]12`, the GI50 is 7.74 µM in the assay with NCI-H226 lung; 10.6 µM with SK-OV-3 ovarian; 6.85 µM in the assay on UO-31 renal; 6.42 µM in the assay on IGROV1 ovarian; 6.26 µM in the assay with PC-3 prostate; 7.47 µM in the assay on DU-145 prostate. Besides, the GI50 with MALME-3M melanoma is 7.4 µM; with SF-295 CNS it was 9.42 µM; in the assay with HCT-116 colon, 6.65 µM; with 786-0 renal, 7.8 µM. Moreover, the TGI in the assay with NCI-H226 lung worked out at 17.1 µM; with SK-OV-3 ovarian it was 25.9 µM; in the assay with UO-31 renal it was 14.5 µM; with IGROV1 ovarian, 14.4 µM; in the assay with PC-3 prostate, 13.1 µM; in the assay with DU-145 prostate it was 14.1 µM. The TGI with MALME-3M melanoma turned out to be 16.5 µM; in the assay with SF-295 CNS, 18.3 µM; in the assay on HCT-116 colon, 14.9 µM; with 786-0 renal it was 15.8 µM.

On to `C[C@@H]1COC(Nc2ccc3ncnc(Nc4ccc(OCc5nccs5)c(Cl)c4)c3c2)=N1`, for which the GI50 was 4.02 µM and 4.04 µM in the assay on NCI-H226 lung; 0.167 µM and 0.178 µM in the assay on SK-OV-3 ovarian; 0.821 µM and 1.29 µM in the assay on UO-31 renal; 1.09 µM and 0.544 µM in the assay on IGROV1 ovarian; 3.37 µM and 2.98 µM with PC-3 prostate; 3.19 µM and 3.26 µM in the assay with DU-145 prostate. Besides, the GI50 in the assay on MALME-3M melanoma is > 10 µM and 4.49 µM; in the assay with SF-295 CNS, 4.9 µM and 4.54 µM; in the assay with HCT-116 colon, 3.94 µM and 4.75 µM; in the assay with 786-0 renal it was 8.31 µM and 7.15 µM. The TGI with NCI-H226 lung is > 10 µM and 18.2 µM; with SK-OV-3 ovarian, > 10 µM and 14.4 µM; in the assay with UO-31 renal, > 10 µM and 13.5 µM; in the assay on IGROV1 ovarian it was > 10 µM and 8.03 µM; in the assay on PC-3 prostate, > 10 µM and 13.2 µM; with DU-145 prostate, > 10 µM and 19.3 µM. The TGI is > 10 µM and 18.5 µM in the assay on MALME-3M melanoma; > 10 µM and 18.6 µM in the assay on SF-295 CNS; > 10 µM and 19 µM with HCT-116 colon; > 10 µM and 27.9 µM in the assay on 786-0 renal.

As for `O=C(/C=C\c1ccc2ccccc2n1)c1cc(Cl)ccc1O`, the GI50 is 9.41 µM with NCI-H226 lung; 61.4 µM with SK-OV-3 ovarian; 4.33 µM in the assay on UO-31 renal; 5.21 µM in the assay on IGROV1 ovarian; 6.47 µM in the assay on PC-3 prostate; 5.81 µM in the assay with DU-145 prostate. In addition, the GI50 is 8.64 µM in the assay on MALME-3M melanoma, 10.3 µM with SF-295 CNS, 3.38 µM in the assay with HCT-116 colon and 4.28 µM in the assay on 786-0 renal. Moreover, the TGI in the assay on NCI-H226 lung is 38.2 µM; with SK-OV-3 ovarian, more than 100 µM; in the assay on UO-31 renal it was 17.8 µM; with IGROV1 ovarian, 22.6 µM; in the assay on PC-3 prostate it was 38.2 µM; in the assay with DU-145 prostate, 19.4 µM. The TGI in the assay on MALME-3M melanoma is 25.8 µM; in the assay on SF-295 CNS it was 44.2 µM; with HCT-116 colon it was 11.3 µM; in the assay on 786-0 renal, 14.6 µM.
